Data published in ChEMBL document CHEMBL1201862, “PubChem BioAssay data set” (2004).
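1) Cells in 96-well plates. 2) Compound, 48 h, 5 concentrations. 3) Linear interpolation between surrounding doses. 4) Unreached endpoint = highest concentration. The concentration for 50% growth inhibition is given as GI50.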 The source made the active and inactive calls. Rule as the data show it: active = GI50 up to about 1.1 µM and inactive = higher.

Assays:
Assay in all cases: NCI anticancer screen, dose series, 48 h
UACC-62 = test system: UACC-62
ACHN = test system: ACHN
U-251 = test system: U-251
EKVX = test system: EKVX
SK-OV-3 = test system: SK-OV-3
HOP-92 = test system: HOP-92
LOX IMVI = test system: LOX IMVI
SF-539 = test system: SF-539
UO-31 = test system: UO-31
SF-268 = test system: SF-268
K562 = test system: K562
SNB-19 = test system: SNB-19
SF-295 = test system: SF-295
KM12 = test system: KM12
OVCAR-3 = test system: OVCAR-3
SR = test system: SR

Measured: GI50

O=C(O)CNS(=O)(=O)c1ccc(NCc2ccccc2)cc1
inactive: UACC-62 > 100 µM | ACHN > 100 µM | U-251 > 100 µM | EKVX > 100 µM | SK-OV-3 > 100 µM | HOP-92 > 100 µM | LOX IMVI > 100 µM | SF-539 > 100 µM | UO-31 > 100 µM | SF-268 > 100 µM | K562 > 100 µM | SNB-19 > 100 µM

CCOc1ccc2c(c1)[n+]([O-])c(S(=O)(=O)c1ccc(C)cc1)c(N)[n+]2[O-]
inactive: UACC-62 > 100 µM | ACHN > 100 µM | SF-295 > 100 µM | U-251 > 100 µM | EKVX > 100 µM | KM12 > 100 µM | SK-OV-3 > 100 µM | HOP-92 > 100 µM | OVCAR-3 > 100 µM | SF-539 > 100 µM | UO-31 > 100 µM | SF-268 > 100 µM | K562 > 100 µM | SNB-19 > 100 µM

COC(=O)CCC(NC(=S)N/N=C(\C)c1cnc2ccccc2n1)C(=O)OC (stereo not drawn)
inactive: UACC-62 16.9 µM | ACHN 20.6 µM | SF-295 49.8 µM | U-251 43.2 µM | EKVX 12.6 µM | KM12 26 µM | SK-OV-3 76.9 µM | SR 15.1 µM | LOX IMVI 23.2 µM | OVCAR-3 42.8 µM | SF-539 41.8 µM | UO-31 27.4 µM | SF-268 29.7 µM | K562 10.1 µM | SNB-19 > 100 µM

BrC1(Br)C2/C=C\CCCCC21 (stereo not drawn)
inactive: ACHN > 100 µM | SF-295 > 100 µM | U-251 > 100 µM | EKVX > 100 µM | KM12 > 100 µM | HOP-92 42.3 µM | SR > 100 µM | LOX IMVI > 100 µM | SF-539 > 100 µM | SF-268 > 100 µM | K562 > 100 µM | SNB-19 > 100 µM

CC1(c2ccc(F)cc2)C2C(=O)NC(=O)C1C(=O)NC2=O (stereo not drawn)
inactive: UACC-62 > 100 µM | ACHN > 100 µM | SF-295 > 100 µM | EKVX > 100 µM | KM12 > 100 µM | SK-OV-3 > 100 µM | HOP-92 > 100 µM | LOX IMVI > 100 µM | OVCAR-3 > 100 µM | SF-539 > 100 µM | UO-31 > 100 µM | SF-268 > 100 µM | K562 > 100 µM | SNB-19 > 100 µM

C#CCN(N=O)C(=O)NC(CCCCNC(=O)OCc1ccccc1)C(=O)OCc1ccccc1 (stereo not drawn)
inactive: UACC-62 32.7 µM | ACHN 55.5 µM | SF-295 55.5 µM | U-251 27.9 µM | EKVX 22.7 µM | KM12 77.3 µM | SK-OV-3 > 100 µM | HOP-92 15.7 µM | LOX IMVI 25.5 µM | OVCAR-3 36.1 µM | UO-31 30.8 µM | SF-268 47 µM | K562 20.5 µM | SNB-19 47.2 µM

CCOP(=O)(OCC)C(C(=O)OC)C(=O)C(=O)Nc1c(C)cc(Br)cc1C (stereo not drawn)
inactive: UACC-62 > 100 µM | ACHN > 100 µM | U-251 > 100 µM | EKVX > 100 µM | KM12 > 100 µM | SK-OV-3 > 100 µM | HOP-92 > 100 µM | LOX IMVI > 100 µM | OVCAR-3 > 100 µM | SF-539 > 100 µM | UO-31 > 100 µM | SF-268 > 100 µM | K562 > 100 µM | SNB-19 > 100 µM

COc1ccc(C(=O)Cc2c(C(=O)c3ccccc3)c3ccccc3n2C(=O)c2ccccc2)cc1
inactive: UACC-62 94 µM | ACHN 53 µM | SF-295 31.3 µM | U-251 78.2 µM | KM12 53.8 µM | HOP-92 25.2 µM | SR 23.8 µM | OVCAR-3 37.7 µM | SF-539 > 100 µM | UO-31 32.9 µM | SF-268 > 100 µM | K562 51.3 µM | SNB-19 92 µM
